Laboratory results reported in patent publication US7317028B2, “Cell differentiation inducer” (Schering Aktiengesellschaft, priority 1996, dated 2008).
Where a name gives a salt, the structure may show the parent alone. Read-outs that look alike come from different tables or passages of the source.

Test system: A2780 cells
Assay: Test for induction of differentiation in A2780 cells (ALP activity, ALPmin)
Type: cell-based, human
Method: Increase of alkaline phosphatase (ALP) activity is known as an indicator for differentiation of human colon cancer cells. […] Thus, differentiation inducing action was evaluated using ALP activity as an indicator.
To each well of a 96-well plate was placed 0.1 mL of A2780 cells (15,000 cells/well) and the next day was added 0.1 mL of a sequential dilute of test solution with the medium. […] The reaction was quenched with 0.05 mL/well of 3N sodium hydroxide aq. For each well, an absorbance at 405 nm was measured to determine the minimum concentration of the drug inducing increase of ALP activity (ALPmin).

[1] = A2780 cells, 3 days incubation, minimum concentration of the drug inducing increase of ALP activity
[2] = Homo sapiens, 72 h, A2780 cells, 3 days incubation, minimum concentration of the drug inducing increase of ALP activity

| SMILES | minimal effective concentration [2] [µM] | further results |
| --- | --- | --- |
| Cc1ncsc1CCOC(=O)NCc1ccc(C(=O)Nc2ccccc2N)cc1 [Example 64, N-(2-aminophenyl)-4-C[N-[2-(4-methylthiazol-5-yl)ethoxycarbonyl]aminomethyl]benzamide] |  | minimal effective concentration [1]: 3 µM |
| Nc1cccc(NC(=S)NCc2ccc(C(=O)Nc3ccccc3N)cc2)c1 [Example 92, N-(2-aminophenyl)-4-[N′-(3-aminophenyl)thioureidomethyl]benzamide] |  | minimal effective concentration [1]: 3 µM |
| Nc1ccccc1NC(=O)c1ccc(CN(CCCc2cccnc2)C(=O)COc2cccnc2)cc1 [Example 43, N-(2-aminophenyl)-4-[N-(pyridin-3-yl)oxyacetyl-N-[3-(pyridin-3-yl)propyl]aminomethyl]benzamide] | 3 |  |
| CC(=O)N(CCc1ccc(C(=O)Nc2ccccc2N)cc1)c1cccnc1 [Example 96, N-(2-aminophenyl)-4-[2-[N-(pyridin-3-yl)-acetylamino]ethyl]benzamide] | 10 |  |
| Nc1ccccc1NC(=O)c1ccc(CN(CCCc2cccnc2)C(=O)OCc2cccnc2)cc1 [Example 80, N-(2-aminophenyl)-4-[N-[3-(Pyridin-3-yl)propyl]-N-(pyridin-3-yl)methoxycarbonylaminomethyl]benzamide] | 0.1 |  |
| Cc1ccc(C(=O)NCc2ccc(C(=O)Nc3ccccc3N)cc2)cc1 [Example 4, N-(2-aminophenyl)-4-[N-(4-methylbenzoyl)aminomethyl]benzamide hydrochloride] | 1 |  |
| Nc1ccccc1NC(=O)c1ccc(-n2cc(COc3ccccc3)oc2=O)cc1 [Example 136, N-(2-aminophenyl)-4-(5-phenoxymethyl-1,3-oxazolin-2-on-3-yl)benzamide] | 1 |  |
| Nc1ccccc1NC(=O)c1ccc(COC(=O)NCCCn2ccnc2)cc1 [Example 99, N-(2-aminophenyl)-4-[3-(imidazol-1-yl)propylaminocarbonyloxymethyl]benzamide] | 3 |  |
| Nc1ccccc1NC(=O)c1ccc(CNC(=O)OCc2cccnc2Cl)cc1 [Example 58, N-(2-aminophenyl)-4-[N-(2-chloropyridin-3-yl)methoxycarbonylaminomethyl]benzamide] | 3 |  |
| Nc1ccccc1NC(=O)c1ccc(CN2CCN(Cc3cccnc3)C2=O)cc1 [Example 145, N-(2-aminophenyl)-4-[3-(pyridin-3-yl)methylimidazolin-2-on-1-yl]methylbenzamide] |  | minimal effective concentration [1]: 3 µM |
| CN1CCN(COC(=O)NCc2ccc(C(=O)Nc3ccccc3N)cc2)CC1 [Example 66, N-(2-aminophenyl)-4-[N-(4-methylpiperazin-1-yl)methoxycarbonylaminomethyl]benzamide] | 3 |  |
| Nc1ccc(F)cc1NC(=O)c1ccc(CNC(=O)OCc2cccnc2)cc1 [Example 70, N-(2-amino-5-fluorophenyl)-4-[N-(pyridin-3-yl)methoxycarbonylaminomethyl]benzamide] | 0.1 |  |
| CN(Cc1ccc(C(=O)Nc2ccccc2N)cc1)C(=O)COc1cccnc1 [Example 44, N-(2-aminophenyl)-4-[N-methyl-N-(pyridin-3-yl)oxyacetyl]aminomethylbenzamide] |  | minimal effective concentration: 0.01 µM |
| Nc1ccccc1NC(=O)c1ccc(NC(=O)Cc2ccccn2)cc1 [Example 110, N-(2-aminophenyl)-4-[(pyridin-2-yl)acetylamino]benzamide dihydrochloride] | 3 |  |
| Nc1ccccc1NC(=O)c1ccc(CNC(=O)Nc2cccnc2)cc1 [Example 91, N-(2-aminophenyl)-4-[N′-(pyridin-3-yl)ureidomethyl]benzamide] |  | minimal effective concentration [1]: 0.1 µM |
| O=C(COc1cccnc1)NCc1ccc(C(=O)Nc2ccccc2O)cc1 [Example 41, N-(2-hydroxyphenyl)-4-[N-(pyridin-3-yl)oxyacetylaminomethyl]benzamide] | 0.3 |  |
| Nc1ccccc1NC(=O)c1cc2cc(NC(=O)CCc3cccnc3)ccc2o1 [Example 128, N-(2-aminophenyl)-5-[3-(pyridin-3-yl)propionamide]benzofuran-2-carboxyamide] |  | minimal effective concentration [1]: 0.1 µM |
| O=C(CCc1cccnc1)NCc1ccc(C(=O)Nc2ccccc2O)cc1 [Example 40, N-(2-hydroxyphenyl)-4-[N-[3-(pyridin-3-yl)propionyl]aminomethyl]benzamide] | 10 |  |
| Nc1ccccc1NC(=O)c1ccc(NC(=O)Cc2ccccc2[N+](=O)[O-])cc1 [Example 103, N-(2-aminophenyl)-4-[(2-nitrophenylacetyl)amino]benzamide hydrochloride] | 1 |  |
| Nc1ccccc1NC(=O)c1ccc(CNC(=O)OCC2CCOC2)cc1 (stereo not shown) [Example 67, N-(2-aminophenyl)-4-[N-(tetrahydrofuran-3-yl)methoxycarbonylaminomethyl]benzamide] | 3 |  |

| SMILES | minimal effective concentration [2] [µM] | further results |
| --- | --- | --- |
| O=C(Nc1ccccc1O)c1ccc(CN(Cc2cccnc2)C(=O)OCc2cccnc2)cc1 [Example 81, N-(2-hydroxyphenyl)-4-[N-(pyridin-3-yl)methyl-N-(pyridin-3-yl)methoxycarbonylaminomethyl]benzamide] | 10 |  |
| Nc1cccc(NC(=O)c2ccc(CNC(=O)OCc3cccnc3)cc2)c1 [Comp. Ex. 1, N-(3-aminophenyl)-4-[N-(pyridin-3-yl)methoxycarbonylaminomethyl]benzamide, reference compound] | > 100 |  |
| Nc1ccccc1NC(=O)c1ccc(CNC(=O)c2c[nH]cn2)cc1 [Example 27, N-(2-aminophenyl)-4-[N-(imidazol-4-yl)carbonylaminomethyl]benzamide] | 10 |  |
| COC(=O)c1ccc(C(=O)NCc2ccc(C(=O)Nc3ccccc3N)cc2)cc1 [Example 11, N-(2-aminophenyl)-4-[N-(4-methoxycarboxybenzoyl)aminomethyl]benzamide] |  | minimal effective concentration [1]: 1 µM |
| Nc1ccccc1NC(=O)c1ccc(NC(=O)OCCc2cccnc2)cc1 [Example 86, N-(2-aminophenyl)-4-[N-[2-(pyridin-3-yl)ethoxycarbonyl]amino]benzamide] | 0.3 |  |
| Nc1ccccc1NC(=O)c1ccc(NC(=O)Cc2ccc(C(F)(F)F)cc2)cc1 [Example 109, N-(2-aminophenyl)-4-[(4-trifluoromethylphenylacetyl)amino]benzamide] | 1 |  |
| Nc1ccccc1NC(=O)c1ccc(NC(=O)Cc2ccc(Cl)cc2)cc1 [Example 102, N-(2-aminophenyl)-4-[(4-chlorophenylacetyl)amino]benzamide] | 3 |  |
| Nc1ccccc1NC(=O)c1ccc(NC(=O)CCc2cccnc2)cc1Cl [Example 113, N-(2-aminophenyl)-2-chloro-4-[3-(pyridin-3-yl)propanoylamino]benzamide] | 0.3 |  |
| Nc1ccccc1NC(=O)c1ccc(-n2cc(COc3ccccn3)oc2=O)cc1 [Example 143, N-(2-aminophenyl)-4-[5-(pyridin-2-yl)oxymethyl-1,3-oxazolin-2-on-3-yl]benzamide] | 3 |  |
| Nc1ccccc1NC(=O)c1ccc(CNC(=O)OC2CN3CCC2CC3)cc1 (stereo not shown) [Example 72, N-(2-aminophenyl)-4-[N-(quinuclidin-3-yl)oxycarbonylaminomethyl]benzamide] |  | minimal effective concentration [1]: 10 µM |
| Nc1ccccc1NC(=O)c1ccc(CNC(=O)CNc2cccnc2)cc1 [Example 35, N-(2-aminophenyl)-4-[N-[N-(pyridin-3-yl)aminoacetyl]aminomethyl]benzamide] | 0.3 |  |
| Nc1ccc(NC(=O)c2ccc(CNC(=O)OCc3cccnc3)cc2)cc1 [Comp. Ex. 2, N-(4-aminophenyl)-4-[N-(pyridin-3-yl)methoxycarbonylaminomethyl]benzamide, reference compound] | > 100 |  |
| Nc1ccccc1NC(=O)c1ccc(CNC(=O)NCc2cccnc2)cc1 [Example 89, N-(2-aminophenyl)-4-[N′-(pyridin-3-ylmethyl)ureidomethyl]benzamide] |  | minimal effective concentration [1]: 0.3 µM |
| Nc1ccc(F)cc1NC(=O)c1ccc(CNC(=O)NCc2cccnc2)cc1 [Example 94, N-(2-amino-5-fluorophenyl)-4-[N′-(pyridin-3-yl)methylureidomethyl]benzamide] |  | minimal effective concentration [1]: 3 µM |
| COc1ccc(CC(=O)Nc2ccc(C(=O)Nc3ccccc3N)cc2)cc1 [Example 107, N-(2-aminophenyl)-4-[(4-methoxyphenylacetyl)amino]benzamide] | 1 |  |
| Nc1ccc(OCC(=O)Nc2ccc(C(=O)Nc3ccccc3N)cc2)cc1 [Example 135, N-(2-aminophenyl)-4-[(4-aminophenoxyacetyl)amino]benzamide] | 3 |  |
| Nc1cccc(NC(=O)NCc2ccc(C(=O)Nc3ccccc3N)cc2)c1 [Example 90, N-(2-aminophenyl)-4-[N′-(3-aminophenyl)ureidomethyl]benzamide] |  | minimal effective concentration [1]: 3 µM |
| O=C(NCc1ccc(C(=O)Nc2ccccc2O)cc1)NCc1cccnc1 [Example 95, N-(2-hydroxyphenyl)-4-[N′-(pyridin-3-yl)methylureidomethyl]benzamide] |  | minimal effective concentration [1]: 3 µM |
| Nc1ccccc1NC(=O)c1ccc(CNC(=O)OCc2ccccc2)cc1 [Example 49, N-(2-aminophenyl)-4-[N-(benzyloxycarbonyl)aminomethyl]benzamide] | 1 |  |
| Nc1ccccc1NC(=O)c1ccc(CNC(=O)c2ccc(C(=O)O)cc2)cc1 [Example 10, N-(2-aminophenyl)-4-[N-(4-carboxybenzoyl)aminomethyl]benzamide hydrochloride] | 3 |  |
